Data taken from ChEMBL document CHEMBL1201862, “PubChem BioAssay data set” (2004).
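Grown in 96-well plates, cells were treated for 48 hours with each compound at five concentrations. Insufficient inhibition: endpoint recorded as highest concentration tested. GI50 marks 50% less growth.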 Calls of active or inactive are those of the source. Cut-off read from the data, not from the text of the source: active = GI50 up to about 1.1 µM and inactive = higher.

Legend:
Assay in all cases: DTP human tumour cell line panel, 48 h
[1] = test system: SW-620
[2] = test system: SN12C
[3] = test system: RPMI-8226
[4] = test system: UACC-257
[5] = test system: MOLT-4
[6] = test system: SF-295
[7] = test system: OVCAR-5
[8] = test system: NCI-H460
[9] = test system: LOX IMVI
[10] = test system: ACHN
[11] = test system: CCRF-CEM
[12] = test system: A549
[13] = test system: 786-0
[14] = test system: EKVX
[15] = test system: SF-268
[16] = test system: U-251
[17] = test system: Hs-578T
[18] = test system: SNB-19
[19] = test system: HCT-15
[20] = test system: UO-31
[21] = test system: SK-MEL-2
[22] = test system: MDA-MB-435
[23] = test system: BT-549
[24] = test system: MDA-MB-231
[25] = test system: K562
[26] = test system: HCC 2998
[27] = test system: HL-60
[28] = test system: OVCAR-3
[29] = test system: SR
[30] = test system: OVCAR-4
[31] = test system: UACC-62
[32] = test system: MDA-N
[33] = test system: Malme-3M
[34] = test system: NCI/ADR-RES
[35] = test system: NCI-H522
[36] = test system: NCI-H226
[37] = test system: KM12
[38] = test system: HT-29
[39] = test system: SK-OV-3
[40] = test system: CAKI-1
[41] = test system: COLO 205
[42] = test system: PC-3
[43] = test system: RXF 393
[44] = test system: HOP-62
[45] = test system: SNB-75
[46] = test system: M14
[47] = test system: SK-MEL-28
[48] = test system: NCI-H23
[49] = test system: T47D
[50] = test system: MCF7
[51] = test system: TK-10
[52] = test system: DU-145
[53] = test system: HCT-116
[54] = test system: SK-MEL-5
[55] = test system: OVCAR-8
[56] = test system: IGROV-1
[57] = test system: A498
[58] = test system: SF-539

SMILES: Nc1nc(=O)c(/N=N/c2ccc([As](=O)(O)O)cc2)c(N)[nH]1
- GI50 [1]: > 100 µM (inactive)
- GI50 [2]: > 100 µM (inactive)
- GI50 [3]: > 100 µM (inactive)
- GI50 [4]: > 100 µM (inactive)
- GI50 [5]: > 100 µM (inactive)
- GI50 [6]: > 100 µM (inactive)
- GI50 [7]: > 100 µM (inactive)
- GI50 [8]: > 100 µM (inactive)
- GI50 [9]: > 100 µM (inactive)
- GI50 [10]: > 100 µM (inactive)
- GI50 [11]: > 100 µM (inactive)
- GI50 [12]: > 100 µM (inactive)
- GI50 [13]: > 100 µM (inactive)
- GI50 [14]: > 100 µM (inactive)
- GI50 [15]: > 100 µM (inactive)
- GI50 [16]: > 100 µM (inactive)
- GI50 [17]: > 100 µM (inactive)
- GI50 [18]: > 100 µM (inactive)
- GI50 [19]: > 100 µM
- GI50 [20]: > 100 µM (inactive)
- GI50 [21]: > 100 µM (inactive)
- GI50 [22]: > 100 µM (inactive)
- GI50 [23]: > 100 µM (inactive)
- GI50 [24]: > 100 µM (inactive)
- GI50 [25]: > 100 µM (inactive)
- GI50 [26]: > 100 µM (inactive)
- GI50 [27]: > 100 µM (inactive)
- GI50 [28]: > 100 µM (inactive)
- GI50 [29]: > 100 µM (inactive)
- GI50 [30]: > 100 µM (inactive)
- GI50 [31]: > 100 µM (inactive)
- GI50 [32]: > 100 µM (inactive)
- GI50 [33]: > 100 µM (inactive)
- GI50 [34]: > 100 µM (inactive)
- GI50 [35]: > 100 µM (inactive)
- GI50 [36]: > 100 µM (inactive)
- GI50 [37]: > 100 µM (inactive)
- GI50 [38]: > 100 µM (inactive)
- GI50 [39]: > 100 µM (inactive)
- GI50 [40]: > 100 µM (inactive)
- GI50 [41]: > 100 µM (inactive)
- GI50 [42]: > 100 µM (inactive)
- GI50 [43]: > 100 µM (inactive)
- GI50 [44]: > 100 µM (inactive)
- GI50 [45]: > 100 µM (inactive)
- GI50 [46]: > 100 µM (inactive)
- GI50 [47]: > 100 µM (inactive)
- GI50 [48]: > 100 µM (inactive)
- GI50 [49]: > 100 µM (inactive)
- GI50 [50]: > 100 µM (inactive)
- GI50 [51]: > 100 µM (inactive)
- GI50 [52]: > 100 µM (inactive)
- GI50 [53]: > 100 µM (inactive)
- GI50 [54]: > 100 µM (inactive)
- GI50 [55]: > 100 µM (inactive)
- GI50 [56]: > 100 µM (inactive)
- GI50 [57]: > 100 µM (inactive)

SMILES: O=P1(Cc2ccccc2)N(Cc2ccccc2)[C@@H]2CCCC[C@H]2N1Cc1ccccc1
- GI50 [1]: 10.1 µM (inactive)
- GI50 [2]: 10.4 µM (inactive)
- GI50 [4]: 6.41 µM (inactive)
- GI50 [5]: 2.72 µM (inactive)
- GI50 [6]: 6.59 µM (inactive)
- GI50 [7]: 11.6 µM (inactive)
- GI50 [8]: 8.07 µM (inactive)
- GI50 [9]: 12.2 µM (inactive)
- GI50 [10]: 12.4 µM (inactive)
- GI50 [11]: 4.76 µM (inactive)
- GI50 [12]: 6.17 µM (inactive)
- GI50 [13]: 13 µM (inactive)
- GI50 [14]: 9.62 µM (inactive)
- GI50 [15]: 11.1 µM (inactive)
- GI50 [16]: 11.1 µM (inactive)
- GI50 [17]: 10.7 µM (inactive)
- GI50 [18]: 10.6 µM (inactive)
- GI50 [19]: 9.91 µM
- GI50 [20]: 6.52 µM (inactive)
- GI50 [21]: 11.2 µM (inactive)
- GI50 [22]: 5.96 µM (inactive)
- GI50 [23]: 17.7 µM (inactive)
- GI50 [24]: 10.6 µM (inactive)
- GI50 [25]: 5 µM (inactive)
- GI50 [26]: 8.89 µM (inactive)
- GI50 [27]: 4.67 µM (inactive)
- GI50 [28]: 7.23 µM (inactive)
- GI50 [29]: 2.69 µM (inactive)
- GI50 [30]: 3.01 µM (inactive)
- GI50 [31]: 7.74 µM (inactive)
- GI50 [32]: 6.82 µM (inactive)
- GI50 [33]: 17.9 µM (inactive)
- GI50 [34]: 5.85 µM (inactive)
- GI50 [35]: 3.97 µM (inactive)
- GI50 [36]: 2.2 µM (inactive)
- GI50 [37]: 5.86 µM (inactive)
- GI50 [38]: 5.32 µM (inactive)
- GI50 [39]: 13 µM (inactive)
- GI50 [40]: 10.4 µM (inactive)
- GI50 [41]: 5.77 µM (inactive)
- GI50 [42]: 4.18 µM (inactive)
- GI50 [43]: 9.51 µM (inactive)
- GI50 [44]: 15.5 µM (inactive)
- GI50 [45]: 6.79 µM (inactive)
- GI50 [46]: 4.34 µM (inactive)
- GI50 [47]: 16.8 µM (inactive)
- GI50 [48]: 9.98 µM (inactive)
- GI50 [49]: 5.48 µM (inactive)
- GI50 [50]: 6.89 µM (inactive)
- GI50 [51]: 13.5 µM (inactive)
- GI50 [52]: 12.6 µM (inactive)
- GI50 [53]: 6.73 µM (inactive)
- GI50 [54]: 1.79 µM (inactive)
- GI50 [58]: 17 µM (inactive)
- GI50 [55]: 10 µM (inactive)
- GI50 [56]: 6.18 µM (inactive)

SMILES: CC(=O)Nc1ccccc1S(=O)(=O)c1c(-c2c(C)c(Cl)c(C)c(Cl)c2C)noc1C
- GI50 [1]: > 100 µM (inactive)
- GI50 [2]: 30.3 µM (inactive)
- GI50 [3]: 29.2 µM (inactive)
- GI50 [4]: 60.7 µM (inactive)
- GI50 [5]: 24.2 µM (inactive)
- GI50 [6]: 32.8 µM (inactive)
- GI50 [7]: > 100 µM (inactive)
- GI50 [8]: 26.5 µM (inactive)
- GI50 [10]: 55.2 µM (inactive)
- GI50 [11]: 27.8 µM (inactive)
- GI50 [12]: 60.1 µM (inactive)
- GI50 [13]: 18.4 µM (inactive)
- GI50 [14]: 48.9 µM (inactive)
- GI50 [15]: 75.2 µM (inactive)
- GI50 [16]: 31.6 µM (inactive)
- GI50 [17]: 28.6 µM (inactive)
- GI50 [18]: 26 µM (inactive)
- GI50 [19]: > 100 µM
- GI50 [20]: > 100 µM (inactive)
- GI50 [21]: > 100 µM (inactive)
- GI50 [22]: > 100 µM (inactive)
- GI50 [23]: 33.9 µM (inactive)
- GI50 [24]: 23.7 µM (inactive)
- GI50 [25]: 33.3 µM (inactive)
- GI50 [26]: 90.4 µM (inactive)
- GI50 [28]: 57.8 µM (inactive)
- GI50 [29]: 16.1 µM (inactive)
- GI50 [30]: 14.7 µM (inactive)
- GI50 [31]: 28.9 µM (inactive)
- GI50 [32]: 37.2 µM (inactive)
- GI50 [33]: > 100 µM (inactive)
- GI50 [34]: 41.2 µM (inactive)
- GI50 [35]: 49.5 µM (inactive)
- GI50 [36]: 27 µM (inactive)
- GI50 [37]: > 100 µM (inactive)
- GI50 [38]: 55.2 µM (inactive)
- GI50 [39]: 31.7 µM (inactive)
- GI50 [40]: 28.9 µM (inactive)
- GI50 [41]: > 100 µM (inactive)
- GI50 [42]: 35.1 µM (inactive)
- GI50 [43]: 28.8 µM (inactive)
- GI50 [44]: 19.7 µM (inactive)
- GI50 [45]: 12.4 µM (inactive)
- GI50 [46]: 74.3 µM (inactive)
- GI50 [47]: > 100 µM (inactive)
- GI50 [48]: 67.6 µM (inactive)
- GI50 [49]: 68.1 µM (inactive)
- GI50 [50]: 35.1 µM (inactive)
- GI50 [51]: 23.3 µM (inactive)
- GI50 [52]: 88.3 µM (inactive)
- GI50 [53]: 51.5 µM (inactive)
- GI50 [54]: > 100 µM (inactive)
- GI50 [55]: 37 µM (inactive)
- GI50 [56]: 56.6 µM (inactive)
- GI50 [57]: 57 µM (inactive)
